From PubChem BioAssay (NCI)
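Grown in 96-well plates, cells were treated for 48 hours with each compound at five concentrations. Insufficient inhibition: endpoint recorded as highest concentration tested. TGI denotes the concentration required for complete inhibition of growth.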

Assays:
Experiment in all cases: DTP human tumour cell line panel, 48 h
CAKI-1 renal = system: CAKI-1 renal
K-562 leukemia = system: K-562 leukemia
HCT-15 colon = system: HCT-15 colon
UO-31 renal = system: UO-31 renal
UACC-62 melanoma = system: UACC-62 melanoma
786-0 renal = system: 786-0 renal
SF-268 CNS = system: SF-268 CNS
T-47D breast = system: T-47D breast
OVCAR-3 ovarian = system: OVCAR-3 ovarian
HS 578T breast = system: HS 578T breast

SMILES | TGI (CAKI-1 renal) [µM] | TGI (K-562 leukemia) [µM] | TGI (HCT-15 colon) [µM] | TGI (UO-31 renal) [µM] | TGI (UACC-62 melanoma) [µM] | TGI (786-0 renal) [µM] | TGI (SF-268 CNS) [µM] | TGI (T-47D breast) [µM] | TGI (OVCAR-3 ovarian) [µM] | TGI (HS 578T breast) [µM]
NC1C/C(=N\O)c2c(I)sc(I)c21 (stereo not given) | 28.6 | > 74.1 | 30.6 | 30.1 | 37.1 | > 50.9 | 35.3 | 52.3 | 30.2 | 48.9
CN1C(c2ccccc2)=CC(=O)C(O)=C(c2ccccc2)S1(=O)=O | > 100 | > 100 | > 100 | > 100 | > 100 | > 100 | > 100 | > 100 | > 100 | > 100
CC(=O)C1=C(N=[N+]=[N-])c2cccc3cccc(c23)C1=O | 30.7 | 89.8 | 32 | 29.7 | 34.2 | 33.7 | 75.2 | 41.2 | 24.6 | 80.6
Nc1nc(Cl)cc(NCC2(CO)CCC(Cc3ccccc3)C2)n1 (stereo not given) | 95.6 | 64.8 | > 100 | > 92.6 | 40.1 | > 100 | > 100 | > 70.3 | > 100 | > 79.9
CC(C)CCC1(O)O[C@H]2C[C@H]3[C@@H]4CCC5CC(=O)C=C[C@]5(C)[C@H]4CC[C@]3(C)[C@H]2[C@@H]1C (stereo not given in full) | 28.1 | 19.3 | 23.4 | 30.3 | 28 | 25.4 | 28.2 | 25.6 | 22.9 | 7.31
CC(C)OP(=O)(CN(C)/C(F)=N\C(F)(F)F)OC(C)C | > 100 | > 100 | > 100 | > 100 | > 100 | > 100 | > 100 | > 100 | > 100 | > 100
NNC(=O)c1c(Cl)c(Cl)c(Cl)c(Cl)c1-c1nc2ccccc2[nH]1 | 38 | 26 | 40.9 | 39.5 | 24.7 | 55.8 | > 100 | 24 | 24.4 | 86.8
O=C(CSc1nc(=O)[nH]c2nc[nH]c12)Nc1ccccc1 | > 100 | > 100 | > 100 | > 100 | > 100 | > 100 | > 100 | > 100 | > 100 | > 100
COC(=O)C(CCC1C=CCC1)N=Cc1ccccc1 (stereo not given) | > 100 | > 100 | > 100 | > 100 | > 100 | > 100 | > 100 | > 100 | > 100 | > 100
CC(=O)O[C@H]1C[C@]2(C)C(CCC3O[C@@]32C)[C@@]2(CC(c3ccoc3)OC2O)[C@@H]1C (stereo not given in full) | > 100 | > 100 | > 100 | > 100 | > 100 | > 100 | > 100 | > 100 | > 100 | > 100
CC1(c2ccc(Cl)cc2)CC(c2ccc(Cl)cc2)=C(C#N)C(=C(C#N)C#N)N1 (stereo not given) | 32.5 | 66.2 | 32.5 | 30.7 | 33.5 | 24.7 | 22.6 | 40 | 24.3 | 50.3
CC(=O)OCC1OC(n2c(N)c(C#N)c(-c3ccccc3)c(C#N)c2=S)C(OC(C)=O)C(OC(C)=O)C1OC(C)=O (stereo not given) | > 100 | > 100 | > 100 | > 100 | > 100 | > 86.4 | > 77.5 | > 100 | > 100 | 54.1
CC(=O)Nc1ccc(CNc2cc(=O)[nH]c(=O)[nH]2)cc1 | > 100 | > 100 | > 100 | > 100 | > 100 | > 100 | > 100 | > 100 | > 100 | > 100
CCOc1ccc2c(c1)/C(=C(\C(Cl)=C(Cl)Cl)[N+](=O)[O-])N2 | > 100 | > 100 | > 100 | > 100 | > 100 | > 100 | > 100 | > 100 | > 100 | > 100
Cc1cc(N(CCC#N)CCC#N)ccc1/C(N=Nc1cccc([N+](=O)[O-])c1)=N/NC(=O)c1cc(Cl)ccc1O | 56.7 | > 100 | 80.5 | 70.8 | 40.2 | > 100 | > 100 | 71 | 59.5 | > 100
c1ccc(C2SCC3=Nc4ccccc4CN32)cc1 (stereo not given) | > 100 | > 100 | > 100 | > 100 | > 100 | > 100 | > 100 | > 100 | 22.5 | > 100
O=C(O)CSc1cc(-c2ccccc2)nc2ccccc12 | > 100 | > 100 | > 100 | > 100 | > 100 | > 100 | > 100 | > 100 | 49 | 61.4
OCCN(CCO)c1ccc2c(C(F)(F)F)cc(C(F)(F)F)nc2n1 | > 100 | > 100 | > 100 | > 100 | > 100 | > 100 | > 100 | > 100 | > 100 | > 100
O=C(CN1CCN(C(=O)OCc2ccccc2)CCN(CC(=O)N2CCCCC2)CCN(C(=O)OCc2ccccc2)CC1)N1CCCCC1 | 28.9 | 32.7 | > 50.6 | 30.6 | 38.8 | > 45.9 | 31.8 | 38.8 | 22.8 | 35.2
O=C1C2C=CC1C1C(=O)OC(=O)C21 (stereo not given) | > 100 | > 100 | > 100 | > 100 | > 100 | > 100 | > 100 | > 100 | > 100 | > 100
Cc1ccc(/C=C/C(=O)c2c([O-])on[n+]2-c2ccccc2)cc1 | 3.87 | > 100 | 4.68 | 6.24 | 3.12 | 3.78 | > 37.5 | 9.49 | 6.92 | > 25.8
